From US11278514B2, “Composition compromising dunnione as effective ingredient for prevention or alleviation of hair loss” (NADIANBIO LTD., priority 2018, dated 2022)
Entries after “also recorded” stand apart in the source; their conditions may differ. Where two headings read alike, the source gives them in different places.

Columns and labels:
[1] = system: C57BL/6 mice having alopecia caused by docetaxel, adriamycin, and cyclophosphamide; assay: Visual observation of skin in animal model having alopecia caused by 6×TAC; type: in vivo
From the text: In 9-week-old C57BL/6 mice, the hair on the dorsal skin area was first removed with an animal hair clipper, and then a depilatory (Niclean cream, manufactured by Ildong Pharmaceutical Co., Ltd.) was applied to the dorsal skin to completely remove the hair.
Docetaxel (DTX), adriamycin (ADR), and cyclophosphamide (CYP) were used as anticancer drugs, and combined administration of the three anticancer drugs was designated as TAC. In addition, information was obtained from the National Comprehensive Cancer Network (NCCN) for the single concentration (designated as 1× concentration) of each anticancer drug which is actually clinically applied to cancer patients. As described below, for the experimental group to be treated with anti-cancer drugs, the mice were treated with docetaxel, adriamycin, and cyclophosphamide at 6× concentration (11.58 mg/kg, 9.24 mg/kg, and 76.8 mg/kg, respectively). When treatment with the anticancer drugs is performed, the anticancer drugs were injected intraperitoneally at time intervals of 1 hour so that each of the anticancer drugs can be sufficiently absorbed.

Sirt1 = Sirt1 activity in skin tissue (fluorescent Sirt1 detection kit), cyclophosphamide alopecia model; type: in vivo, mice; conditions: cyclophosphamide plus dunnione combination-treated group; day 18
Procedure: In addition, the skin tissue obtained from the animal model prepared by the method in Example 2 was homogenized. The homogenized skin tissue was tested with the fluorescent Sirt1 detection kit (BML-AK555-0001) of Enzo Life Sciences International, Inc. according to the instruction manual, and then Sirt1 activity was analyzed. 40 μg of the homogenized skin tissue was mixed with a reaction solution (Fluor de Lys-Sirt1, NAD+, buffer solution (25 mM Tris-HCl (pH8.0), 137 mM NaCl, 2.7 mM […], 1 mM MgCl2, and 1 mg/mL BSA)), and reaction was allowed to proceed at a temperature of 37° C. for 1 hour. Then, additional reaction was allowed to proceed for 5 minutes under a condition in which a developer is added. In order to check the final Sirt1 activity, readings were measured for the reaction solution using the CytoFluor series 4000 fluorometer (PerSeptive Biosystems, Inc., USA) with the excitation wavelength set to 360 nm and the emission to 460 nm.

[2] = system: C57BL/6 mice having alopecia caused by docetaxel, adriamycin, and cyclophosphamide; assay: Histological changes in skin (H&E) in animal model having alopecia caused by 6×TAC; type: in vivo; conditions: day 18
Procedure: The day, on which the mice were hair-removed in Example 1, was set as day 0, and the mice in each of the experimental groups described in Example 4 were sacrificed on day 18. Subsequently, the mouse dorsal skin was dissected parallel or perpendicular to the vertebral line, and removed. The removed skin was fixed with a Bouin's solution for 12 hours, subjected to dehydration, and embedded in paraffin. Then, the resulting product was prepared into 5-μm sections. The prepared sections were subjected to hematoxylin and eosin (H&E) staining, and histological changes in the skin in each experimental group were observed.

p53 = assay: Acetylation of p53 in skin tissue (western blot), cyclophosphamide alopecia model; type: in vivo, mice; conditions: cyclophosphamide plus dunnione; day 18
Procedure: (§1) In the cyclophosphamide-induced alopecia mouse model of Example 2, expression level of Sirt1 protein and acetylation reaction of the target proteins thereof, NF-κB p65 and p53, were identified on the skin tissue obtained on day 18 after hair removal.
(§2) Specifically, 10 mg of the skin tissue obtained from the animal model prepared by the method in Example 2 was homogenized by addition of a lysis solution (RIPA lysis buffer). Then, centrifugation was performed at 14,000 rpm for 10 minutes. The protein concentration in the supernatant was quantified with a bovine serum albumin (BSA) standard solution. The skin tissue protein was used in an amount of 40 μg per test solution. First, the homogenized skin tissue was mixed with a sample solution (Bio-Rad, 161-0747) and inactivated at a temperature of 95° C. for 5 minutes. Thereafter, the protein was separated by a sodium dodecyl sulfate-polyacrylamide gel electrophoresis (SDS-PAGE) method, and then transferred to a nitrocellulose membrane. Treatment with anti-Sirt1 antibody (Abcam), anti-acetyl NF-κB p65 antibody and anti-acetyl p53 antibody (Cell Signaling Technologies), and anti-β-actin antibody (Santa Cruz Biotechnology) as primary antibodies were performed, and reaction was allowed to proceed. […]

NQO1 knockout mice [3] = assay: Visual observation of skin in NQO1 knockout mice treated with 6×TAC; type: in vivo
From the text: In order to identify whether a hair loss inhibitory effect of dunnione in an animal model having combined chemotherapy-induced alopecia is dependent on the enzyme NQO1, the same experiments as described in Examples 1 and 2 were repeatedly performed using NQO1 knockout mice in place of the C57BL/6 mice.

[4] = molecular target: NAD(P)H: quinone oxidoreductase 1 (NQO1) (Homo sapiens, UniProt P15559); conditions: reported to date (Pandit et al. 2015; Shen et al. 2017); cited from earlier work
NAD(P)H: quinone oxidoreductase 1 (NQO1), sequence (P15559 whole entry, species assumed): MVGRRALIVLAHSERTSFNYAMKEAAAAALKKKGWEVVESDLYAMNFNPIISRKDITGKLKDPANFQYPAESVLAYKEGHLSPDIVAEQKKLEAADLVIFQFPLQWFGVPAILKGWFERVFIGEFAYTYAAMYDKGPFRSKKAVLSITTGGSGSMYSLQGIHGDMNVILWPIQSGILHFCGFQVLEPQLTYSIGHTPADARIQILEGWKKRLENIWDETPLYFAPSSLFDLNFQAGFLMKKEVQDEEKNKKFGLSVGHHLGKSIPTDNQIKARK

NQO1 knockout mice [5] = assay: Histological changes in skin (H&E) in NQO1 knockout mice treated with 6×TAC; type: in vivo; conditions: day 18
Procedure: The day, on which the NQO1 knockout mice were hair-removed according to Example 1, was set as day 0, and the mice in each of the experimental groups described in Example 5 were sacrificed on day 18. Subsequently, the mouse dorsal skin was dissected parallel or perpendicular to the vertebral line, and removed. The removed skin was fixed with a Bouin's solution for 12 hours, subjected to dehydration, and embedded in paraffin. Then, the resulting product was prepared into 5-μm sections. The prepared sections were subjected to hematoxylin and eosin (H&E) staining, and histological changes in the skin in each experimental group were observed.

NQO1 knockout mice [6] = system: NQO1 knockout mice
Procedure: (§3) The day, on which the NQO1 knockout mice were hair-removed according to Example 1, was set as day 0, and the animals were divided into the following experimental groups and used for experiments: normal group (Control, 4 animals) in which only PBS is intraperitoneally injected on day 9; cyclophosphamide group (CYP, 6 animals) in which cyclophosphamide (150 mg/kg) is intraperitoneally injected on day 9; combination-treated group (CYP+Dunnione, 6 animals) in which dunnione is orally administered on a daily basis starting from 3 days prior to treatment with cyclophosphamide; and dunnione alone-treated group (Dunnione, 4 animals) in which only dunnione (20 mg/kg) is administered (FIG. 1).

[7] = system: C57BL/6 mice having alopecia caused by cyclophosphamide
Procedure: as §3, with “the” for “the NQO1 knockout”, “in” for “according to”, “groups:” for “experimental groups and used for experiments:”
The day, on which the mice were hair-removed in Example 1, was set as day 0, and the mice in each of the experimental groups described in Example 2 were sacrificed on day 18. Subsequently, the mouse dorsal skin was dissected parallel or perpendicular to the vertebral line, and removed. The removed skin was fixed with a Bouin's solution for 12 hours, subjected to dehydration, and embedded in paraffin. Then, the resulting product was prepared into 5-μm sections. The prepared sections were subjected to hematoxylin and eosin (H&E) staining, and histological changes in the skin in each experimental group were observed.

Sirt1 protein = assay: Expression level of Sirt1 protein in skin tissue (western blot), cyclophosphamide alopecia model; type: in vivo, mice; conditions: cyclophosphamide plus dunnione; day 18
Procedure: as §1, §2

[8] = 6×TAC+Dunnione combination-treated group
[9] = dunnione alone (20 mg/kg), day 18

With CC1OC2=C(C(=O)C(=O)c3ccccc32)C1(C)C (centres unmarked) [dunnione, 2,3-dihydro-2,3,3-trimethyl-naphtho[1,2-b]furan-4,5-dione] as the compound, how does the “hair growth, visual observation of skin” value ([1]; 6×TAC+Dunnione combination-treated group, day 18) read?
The value was “hair grew overall so that the skin is full of hair and looks black”.

And the “hair growth, visual observation of skin” value ([1]; 6×TAC+Dunnione: 6×TAC i.p. day 9, dunnione oral daily from 3 days prior, day 14)?
Its value is “began to grow more hair than the 6×TAC alone-treated group”.

And the hair loss ([1]; TAC plus dunnione combination-treated group compared with TAC alone-treated group)?
Its hair loss is “inhibited hair loss”.

What about the “hair growth, visual observation of skin” value ([1]; dunnione alone, day 18) of the same compound?
The value was “hair grew overall so that the skin is full of hair and looks black”.

And the “Sirt1 activity in skin tissue” value (Sirt1)?
Its value is “maintained at a level similar to the normal group”.

And the “development of hair follicles and inner root sheaths (histology)” value (shortened to “development … (histology)”) [2, 8]?
Its value is “the hair follicles and the inner root sheaths have well developed overall; also recorded: suppressed falling-off of hair follicles and inner root sheaths”.

What about the “number of growing hairs (histology)” value ([2]; 6×TAC+Dunnione compared with 6×TAC alone-treated group) of the same compound?
The value was “increased number of hairs”.

What about the “acetylation of p53 in skin tissue” value (p53) of the same compound?
Its value is “suppresses”.

What about the “hair growth, visual observation of skin” value (NQO1 knockout mice [3]; 6×TAC+Dunnione combination-treated group, until day 18) of the same compound?
The value was “hair hardly grows until day 18 after hair removal; also recorded: progression of hair loss to a level similar to the TAC alone-treated group”.

And the “start of hair growth, visual observation of skin” value (NQO1 knockout mice [3]; dunnione alone (20 mg/kg))?
Its value is “hair began to grow starting from day 12 after hair removal”.

And the “hair growth, visual observation of skin” value (NQO1 knockout mice [3]; [9])?
The value was “hair grew overall on day 18 so that the skin is full of hair and looks black”.

What about the “activity of the enzyme NQO1” value [4] of the same compound?
Its value is “increases”.

What about the “development … (histology)” value (NQO1 knockout mice [5]; [8]) of the same compound?
The value was “the hair follicles have poorly developed or the inner root sheaths have insufficiently developed; also recorded: falling-off of hair follicles and inner root sheaths in the skin tissue progresses”.

What about the “development … (histology)” value (NQO1 knockout mice [5]; dunnione alone) of the same compound?
Its value is “the hair follicles and inner root sheaths have well developed overall”.

And the “hair growth, visual observation of skin” value (NQO1 knockout mice [6]; CYP+Dun combination-treated group, until day 18)?
Its value is “hair hardly grew until day 18 after hair removal; also recorded: progression of hair loss to a level similar to the cyclophosphamide alone-treated group”.

And the “start of hair growth, visual observation of skin” value (NQO1 knockout mice [6]; dunnione alone (20 mg/kg))?
Its value is “hair began to grow starting from day 12 after hair removal”.

And the “hair growth, visual observation of skin” value (NQO1 knockout mice [6]; [9])?
The value was “hair grew overall on day 18 so that the skin is full of hair and looks black”.

And the “development … (histology)” value ([7]; CYP+Dun combination-treated group, day 18 after hair removal)?
Its value is “suppressed falling-off of hair follicles and inner root sheaths; also recorded: the hair follicles and the inner root sheaths have well developed overall”.

What about the “number of growing hairs (histology)” value ([7]; CYP+Dun compared with cyclophosphamide alone-treated group, day 18) of the same compound?
The value was “increased number of hairs”.

And the “expression level of Sirt1 protein in skin tissue” value (Sirt1 protein)?
The value was “increases; also recorded: normalizes”.
